EP4740948A1 (Dong Wha Pharm. Co., Ltd., priority 2023, dated 2025)

Columns and labels:
NCI-H1299 cells = experiment: Cancer cell proliferation inhibition (Cell Counting Kit-8), lung cancer cell line; format: cell-based; conditions: 1000 nM, cultured seven to 11 days; for inhibition at 1 µM: Homo sapiens, NCI-H1299, 264 h, read-out: % inhibition rate NCI-H129 9
Method: (§1) In addition, as one example of solid cancer in which an overexpression of EZH2 and a consequent disease association therebetween is reported, a proliferation inhibitory activity of the 1,3-benzodioxole derivative compounds represented by chemical formula I of the present invention was evaluated in Lovo cells as a colorectal cancer cell line, SW-13 cells as an adrenal cancer cell line, MIA-PaCa-2 cells as a pancreatic cancer cell line, and NCI-H1299 cells as a lung cancer cell line.
(§2) Each cell line (G401 cell, MKN-45 cell, Lovo cell, SW-13 cell, MIA-PaCa-2, NCI-H1299) of Table 2 below was cultured using RPMI1640, McCoy's 5a, L-15 or DMEM containing 10% fetal bovine serum, and the cells were seeded into wells of a 96-well culture dish at 100 to 1,000 cells each, and a test substance 1000 nM was cultured for seven to 11 days after drug treatment. After the culture, the cells were measured according to a manufacturer's instructions using Cell Counting Kit-8, and a cell proliferation inhibitory effect (% inhibition rate) of the test substance was obtained.
(§3) The cell proliferation inhibitory effect (% inhibition rate) of the test substance was calculated using a following equation. % inhibition rate = {1−(testgroup/controlgroup)} X 100 [formula]

SW-13 cells = experiment: Cancer cell proliferation inhibition (Cell Counting Kit-8), adrenal cancer cell line; format: cell-based; conditions: 1000 nM, cultured seven to 11 days; for inhibition at 1 µM: Homo sapiens, SW13, 264 h, read-out: % inhibition rate SW-13; for % inhibition rate SW-13: 1 µM
Method: as §1, §2, §3

MKN-45 cells = experiment: Cancer cell proliferation inhibition (Cell Counting Kit-8), gastric cancer cell line; format: cell-based; conditions: 1000 nM, cultured seven to 11 days; for inhibition at 1 µM: Homo sapiens, MKN-45, 264 h, read-out: % inhibition rate MKN -45
From the text: (§4) Among solid cancer cells, in G401 cells in which expression of SMARCB1, which is a member of switch/sucrosenon-fermenting (SWI/SNF), is defective as a cell line of a rhabdoid tumor in which a therapeutic effect may be expected through dual inhibition of EZH1/2, and MKN-45 cells in which expression of ARID1A, which is a member of SWI/SNF, is defective as a gastric cancer cell line, a proliferation inhibitory ability of the 1,3-benzodioxole derivative compounds represented by chemical formula I of the present invention was evaluated.
as §2, §3

G401 cells = experiment: Cancer cell proliferation inhibition (Cell Counting Kit-8), rhabdoid tumor cell line; format: cell-based; conditions: 1000 nM, cultured seven to 11 days; for inhibition at 1 µM: Homo sapiens, G-401, 264 h, read-out: % inhibition rate G401; for % inhibition rate G401: 1 µM
From the text: as §4, §2, §3

EZH1 = EZH1 (Homo sapiens, UniProt Q92800); experiment: AlphaLISA enzyme activity inhibition, EZH1; format: biochemical; conditions: 5nM test substance
Method: (§5) In order to confirm the EZH1 and/or EZH2 activity inhibitory effect of the 1,3-benzodioxole derivative compounds represented by chemical formula I of the present invention, the activity was measured using an AlphaLISA test method. The test substance dissolved in dimethylsulfoxide (DMSO) was diluted in a test solution (20 mM Tris pH 8.0, 0.1% BSA, 0.01% Triton X-100, 0.5 mM DTT) according to a final treatment concentration (5 nM or 10 nM) and mixed with EZH1 and EZH2, respectively, and then histone H3 peptide and S-adenosylmethionine (SAM) were added to initiate an enzyme reaction. An acceptor bead was added thereto after reaction for two hours and subjected to an additional reaction for one hour, after which a donor bead was added thereto. After an additional reaction for 30 minutes, the reaction was completed. An activity was measured using the Magellan program on a Spark10M instrument. DMSO was used as a control group, an inhibition rate of enzyme activity was calculated using a following equation, and the results thereof are shown in Table 1 below. [formula]

Lovo cells = experiment: Cancer cell proliferation inhibition (Cell Counting Kit-8), colorectal cancer cell line; format: cell-based; conditions: 1000 nM, cultured seven to 11 days; for inhibition at 1 µM: Homo sapiens, LoVo, 264 h, read-out: % inhibition rate LoVo
Method: as §1, §2, §3

MIA-PaCa-2 cells = experiment: Cancer cell proliferation inhibition (Cell Counting Kit-8), pancreatic cancer cell line; format: cell-based; conditions: 1000 nM, cultured seven to 11 days; for inhibition at 1 µM: Homo sapiens, MIA PaCa-2, 264 h, read-out: % inhibition rate MIA-Paca2
Method: as §1, §2, §3

EZH2 = EZH2 (Homo sapiens, UniProt Q15910); experiment: AlphaLISA enzyme activity inhibition, EZH2; format: biochemical; conditions: 5nM test substance
Method: as §5

EZH1, sequence (Q92800 whole entry, species assumed): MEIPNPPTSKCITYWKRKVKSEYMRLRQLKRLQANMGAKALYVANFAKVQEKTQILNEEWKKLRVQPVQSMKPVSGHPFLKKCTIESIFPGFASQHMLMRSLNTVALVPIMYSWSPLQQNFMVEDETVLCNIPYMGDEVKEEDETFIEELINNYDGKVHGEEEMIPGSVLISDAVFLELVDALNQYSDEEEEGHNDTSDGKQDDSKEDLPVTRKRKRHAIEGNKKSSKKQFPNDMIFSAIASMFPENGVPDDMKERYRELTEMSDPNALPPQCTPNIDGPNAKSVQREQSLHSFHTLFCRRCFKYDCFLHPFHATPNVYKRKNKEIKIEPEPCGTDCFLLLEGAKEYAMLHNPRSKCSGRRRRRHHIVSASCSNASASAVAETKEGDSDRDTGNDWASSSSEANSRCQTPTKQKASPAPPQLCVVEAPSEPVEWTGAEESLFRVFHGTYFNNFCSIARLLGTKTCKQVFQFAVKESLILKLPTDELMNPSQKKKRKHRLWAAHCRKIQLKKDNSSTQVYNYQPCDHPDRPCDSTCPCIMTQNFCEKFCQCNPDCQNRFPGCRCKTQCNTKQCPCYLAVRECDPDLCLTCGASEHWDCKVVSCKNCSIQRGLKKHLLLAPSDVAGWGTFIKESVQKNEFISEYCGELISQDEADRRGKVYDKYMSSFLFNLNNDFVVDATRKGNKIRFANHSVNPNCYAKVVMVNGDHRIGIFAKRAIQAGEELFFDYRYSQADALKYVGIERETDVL
EZH1, sequence (O75530 whole entry partner, species assumed): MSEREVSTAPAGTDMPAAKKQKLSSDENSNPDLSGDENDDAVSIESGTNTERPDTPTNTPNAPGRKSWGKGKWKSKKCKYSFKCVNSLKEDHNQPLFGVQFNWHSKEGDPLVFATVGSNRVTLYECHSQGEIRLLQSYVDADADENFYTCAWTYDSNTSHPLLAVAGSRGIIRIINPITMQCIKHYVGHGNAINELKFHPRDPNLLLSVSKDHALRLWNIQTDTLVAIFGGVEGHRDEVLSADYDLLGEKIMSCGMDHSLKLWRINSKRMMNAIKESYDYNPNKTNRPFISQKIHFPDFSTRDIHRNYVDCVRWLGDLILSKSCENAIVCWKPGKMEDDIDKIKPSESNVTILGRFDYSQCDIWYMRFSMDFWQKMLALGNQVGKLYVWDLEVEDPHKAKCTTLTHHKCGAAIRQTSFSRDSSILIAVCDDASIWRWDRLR
EZH1, sequence (Q15022 whole entry partner, species assumed): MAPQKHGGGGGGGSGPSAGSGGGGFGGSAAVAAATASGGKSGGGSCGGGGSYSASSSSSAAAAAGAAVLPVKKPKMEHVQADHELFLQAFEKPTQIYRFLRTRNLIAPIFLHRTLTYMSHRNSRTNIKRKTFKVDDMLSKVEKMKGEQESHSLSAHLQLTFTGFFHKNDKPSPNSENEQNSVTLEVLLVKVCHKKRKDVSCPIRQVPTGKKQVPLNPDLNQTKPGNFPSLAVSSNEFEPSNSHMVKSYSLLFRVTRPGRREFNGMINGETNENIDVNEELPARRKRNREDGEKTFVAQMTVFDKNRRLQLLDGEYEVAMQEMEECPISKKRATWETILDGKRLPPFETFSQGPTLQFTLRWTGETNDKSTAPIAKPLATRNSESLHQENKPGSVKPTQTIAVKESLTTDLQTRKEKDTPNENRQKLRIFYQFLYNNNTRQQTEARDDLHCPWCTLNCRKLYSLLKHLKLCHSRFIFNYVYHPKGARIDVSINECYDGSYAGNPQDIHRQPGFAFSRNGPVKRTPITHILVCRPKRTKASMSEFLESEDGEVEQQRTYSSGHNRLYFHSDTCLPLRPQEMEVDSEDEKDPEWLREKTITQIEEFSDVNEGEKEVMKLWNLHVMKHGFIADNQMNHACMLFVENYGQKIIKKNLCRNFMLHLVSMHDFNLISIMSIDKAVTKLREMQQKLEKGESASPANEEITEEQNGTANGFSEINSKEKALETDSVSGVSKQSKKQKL
EZH2, sequence (Q15910 whole entry, species assumed): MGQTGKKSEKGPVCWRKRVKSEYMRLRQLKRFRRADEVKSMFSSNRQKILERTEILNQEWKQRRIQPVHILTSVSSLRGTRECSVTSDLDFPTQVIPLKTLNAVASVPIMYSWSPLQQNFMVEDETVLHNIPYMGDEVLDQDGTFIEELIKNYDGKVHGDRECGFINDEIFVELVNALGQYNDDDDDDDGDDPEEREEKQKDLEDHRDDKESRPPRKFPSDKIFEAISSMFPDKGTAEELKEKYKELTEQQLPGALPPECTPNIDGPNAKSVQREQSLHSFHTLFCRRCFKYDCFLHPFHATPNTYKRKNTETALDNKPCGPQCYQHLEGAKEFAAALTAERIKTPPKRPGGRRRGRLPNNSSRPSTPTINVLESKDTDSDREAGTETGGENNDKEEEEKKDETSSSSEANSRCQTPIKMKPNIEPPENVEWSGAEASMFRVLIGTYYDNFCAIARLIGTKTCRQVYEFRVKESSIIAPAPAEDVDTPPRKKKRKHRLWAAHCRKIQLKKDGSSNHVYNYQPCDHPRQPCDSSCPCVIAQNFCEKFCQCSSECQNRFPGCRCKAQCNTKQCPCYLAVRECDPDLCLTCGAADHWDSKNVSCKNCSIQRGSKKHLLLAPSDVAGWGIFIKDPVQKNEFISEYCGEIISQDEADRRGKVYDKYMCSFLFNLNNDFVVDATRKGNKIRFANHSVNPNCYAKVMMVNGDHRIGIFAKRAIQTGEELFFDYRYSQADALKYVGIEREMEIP
EZH2, sequence (O75530 whole entry partner, species assumed): as the sequence (O75530 whole entry partner, species assumed) above
EZH2, sequence (Q15022 whole entry partner, species assumed): as the sequence (Q15022 whole entry partner, species assumed) above

| inhibition at 0.005 µM (EZH1) | inhibition at 0.005 µM (EZH2) | SMILES | inhibition at 1 µM (NCI-H1299 cells) | inhibition at 1 µM (SW-13 cells) | inhibition at 1 µM (MKN-45 cells) | inhibition at 1 µM (G401 cells) | inhibition at 1 µM (Lovo cells) | inhibition at 1 µM (MIA-PaCa-2 cells) | % inhibition rate NCI-H129 9 (NCI-H1299 cells) | % inhibition rate SW-13 (SW-13 cells) | % inhibition rate MKN -45 (MKN-45 cells; 1 µM) | % inhibition rate G401 (G401 cells) | % inhibition rate LoVo (Lovo cells; 1 µM) | % inhibition rate MIA-Paca2 (MIA-PaCa-2 cells) | % inhibition rate NCI-H129 9 (NCI-H1299 cells; 1 µM) | % inhibition rate LoVo (Lovo cells) | % inhibition rate MKN -45 (MKN-45 cells) |
| --- | --- | --- | --- | --- | --- | --- | --- | --- | --- | --- | --- | --- | --- | --- | --- | --- | --- |
| 73.5% | 66.5% | CSc1cc(C)[nH]c(=O)c1CNC(=O)c1cc(-c2ccc(N3CCC(F)(F)CC3)nc2)c2c(c1C)OC(C)([C@H]1CC[C@H](N(C)C)CC1)O2 (relative stereo) [Compound 3, 7-(6-(4,4-difluoropiperidin-1-yl)pyridin-3-yl)-2-(trans-4-(dimethylamino)cyclohexyl)-2,4-dimethyl-N-((6-methyl-4-(methylthio)-2-oxo-1,2-dihydropyridin-3-yl)methyl)benzo[d][1,3]dioxole-5-carboxamide] | 30 to 70% | 30 to 70% | ≤ 30% | 30 to 70% | 30 to 70% | ≤ 30% | – | – | – | – | – | – | – | – | – |
| 74% | 77.4% | CSc1cc(C)[nH]c(=O)c1CNC(=O)c1cc(-c2cnc(N3CCCCC3)nc2)c2c(c1C)OC(C)([C@H]1CC[C@H](N(C)C)CC1)O2 (relative stereo) [Compound 4, 2-(trans-4-(dimethylamino)cyclohexyl)-2,4-dimethyl-N-((6-methyl-4-(methylthio)-2-oxo-1,2-dihydropyridin-3-yl)methyl)-7-(2-(piperidin-1-yl)pyrimidin-5-yl)benzo[d][1,3]dioxole-5-carboxamide] | ≤ 30% | 30 to 70% | ≤ 30% | 30 to 70% | ≥ 70% | ≤ 30% | – | – | – | – | – | – | – | – | – |
| – | – | CCN1CCN(c2ncc(-c3cc(C(=O)NCc4c(SC)cc(C)[nH]c4=O)c(C)c4c3OC(C)(C3CCN(CC(F)(F)F)CC3)O4)cn2)CC1 (single isomer, unassigned) [Compound 77, 7-(2-(4-ethylpiperazin-1-yl)pyrimidin-5-yl)-2,4-dimethyl-N-((6-methyl-4-(methylthio)-2-oxo-1,2-dihydropyridin-3-yl)methyl)-2-(1-(2,2,2-trifluoroethyl)piperidin-4-yl)benzo[d][1,3]dioxole-5-carboxamide] | – | – | – | – | – | – | + (+: ≤30%) | + (+: ≤30%) | + (+: ≤30%) | + (+: ≤30%) | ++ (++: more than 30% and less than 70%) | + (+: ≤30%) | – | – | – |
| – | – | CCN(C)c1ccc(-c2cc(C(=O)NCc3c(SC)cc(C)[nH]c3=O)c(C)c3c2OC(C)(C2CCN(CC(F)(F)F)CC2)O3)cn1 (single isomer, unassigned) [Compound 80, 7-(2-(ethyl(methyl)amino)pyridin-5-yl)-2,4-dimethyl-N-((6-methyl-4-(methylthio)-2-oxo-1,2-dihydropyridin-3-yl)methyl)-2-(1-(2,2,2-trifluoroethyl)piperidin-4-yl)benzo[d][1,3]dioxole-5-carboxamide] | – | – | – | – | – | – | – | + (+: ≤30%) | ++ (++: more than 30% and less than 70%) | + (+: ≤30%) | – | + (+: ≤30%) | + (+: ≤30%) | +++ (+++: ≥70%) | – |
| – | – | CCN(C)c1ncc(-c2cc(C(=O)NCc3c(SC)cc(C)[nH]c3=O)c(C)c3c2OC(C)(C2CCN(CC(F)F)CC2)O3)cn1 (single isomer, unassigned) [Compound 82, 2-(1-(2,2-difluoroethyl)piperidin-4-yl)-7-(2-(ethyl(methyl)amino)pyrimidin-5-yl)-2,4-dimethyl-N-((6-methyl-4-(methylthio)-2-oxo-1,2-dihydropyridin-3-yl)methyl)benzo[d][1,3]dioxole-5-carboxamide] | – | – | – | – | – | – | + (+: ≤30%) | + (+: ≤30%) | + (+: ≤30%) | ++ (++: more than 30% and less than 70%) | – | + (+: ≤30%) | – | +++ (+++: ≥70%) | – |
| – | – | CCN1CCC(C2(C)Oc3c(-c4cnc(N(C)CC)nc4)cc(C(=O)NCc4c(SC)cc(C)[nH]c4=O)c(C)c3O2)CC1 (single isomer, unassigned) [Compound 84, 7-(2-(ethyl(methyl)amino)pyrimidin-5-yl)-2-(1-ethylpiperidin-4-yl)-2,4-dimethyl-N-((6-methyl-4-(methylthio)-2-oxo-1,2-dihydropyridin-3-yl)methyl)benzo[d][1,3]dioxole-5-carboxamide] | – | – | – | – | – | – | + (+: ≤30%) | + (+: ≤30%) | – | + (+: ≤30%) | + (+: ≤30%) | + (+: ≤30%) | – | – | + (+: ≤30%) |
| – | – | CCN(C)c1ccc(-c2cc(C(=O)NCc3c(SC)cc(C)[nH]c3=O)c(C)c3c2OC(C)(C2CCN(CC(F)(F)F)CC2)O3)cn1 (single isomer, unassigned) [Compound 87, 7-(6-(ethyl(methyl)amino)pyridin-3-yl)-2,4-dimethyl-N-((6-methyl-4-(methylthio)-2-oxo-1,2-dihydropyridin-3-yl)methyl)-2-(1-(2,2,2-trifluoroethyl)piperidin-4-yl)benzo[d][1,3]dioxole-5-carboxamide] | – | – | – | – | – | – | – | + (+: ≤30%) | + (+: ≤30%) | + (+: ≤30%) | – | + (+: ≤30%) | + (+: ≤30%) | +++ (+++: ≥70%) | – |
| – | – | CSc1cc(C)[nH]c(=O)c1CNC(=O)c1cc(-c2ccc(N3CC(C)CC(C)C3)nc2)c2c(c1C)OC(C)(C1CCN(CC(F)(F)F)CC1)O2 (stereo not shown) [Compound 37, 7-(6-(3,5-dimethylpiperidin-1-yl)pyridin-3-yl)-2,4-dimethyl-N-((6-methyl-4-(methylthio)-2-oxo-1,2-dihydropyridin-3-yl)methyl)-2-(1-(2,2,2-trifluoroethyl)piperidin-4-yl)benzo[d][1,3]dioxole-5-carboxamide] | 30 to 70% | ≤ 30% | ≤ 30% | ≤ 30% | ≥ 70% | ≤ 30% | – | – | – | – | – | – | – | – | – |
| – | – | CSc1cc(C)[nH]c(=O)c1CNC(=O)c1cc(-c2ccc(N3C[C@@H](C)O[C@@H](C)C3)nc2)c2c(c1C)OC(C)([C@H]1CC[C@H](N3CC(CC(F)(F)F)C3)CC1)O2 (stereo partly drawn) [Compound 102, 7-(6-((2S,6R)-2,6-dimethylmorpholino)pyridin-3-yl)-2,4-dimethyl-N-((6-methyl-4-(methylthio)-2-oxo-1,2-dihydropyridin-3-yl)methyl)-2-(trans-4-(3-(2,2,2-trifluoroethyl)azetidin-1-yl)cyclohexyl)benzo[d][1,3]dioxole-5-carboxamide] | ≤ 30% | ≥ 70% | 30 to 70% | 30 to 70% | ≥ 70% | ≥ 70% | – | – | – | – | – | – | – | – | – |
| – | – | CSc1cc(C)[nH]c(=O)c1CNC(=O)c1cc(-c2ccc(N3C[C@@H](C)O[C@@H](C)C3)nc2)c2c(c1C)OC(C)([C@H]1CC[C@H](N3CC(OC(C)C)C3)CC1)O2 (stereo partly drawn) [Compound 105, 7-(6-((2S,6R)-2,6-dimethylmorpholino)pyridin-3-yl)-2-(trans-4-(3-isopropoxyazetidin-1-yl)cyclohexyl)-2,4-dimethyl-N-((6-methyl-4-(methylthio)-2-oxo-1,2-dihydropyridin-3-yl)methyl)benzo[d][1,3]dioxole-5-carboxamide] | ≥ 70% | ≥ 70% | ≥ 70% | 30 to 70% | ≥ 70% | ≥ 70% | – | – | – | – | – | – | – | – | – |
